Measurements reported in US8957069B2, “Benzofuran derivatives” (Takeda Pharmaceutical Company Limited, priority 2009, dated 2015).

Test system: rat mixed glial culture
Experiment: Activity of promoting neuronal neogenesis in rat mixed glial culture
Type: cell-based
Settings: compound 1 μM + rhIGF-1 100 ng/ml, three days; anti-class III beta-tubulin, absorbance at 450 nm; control (rhIGF-1 only) = 100%
Protocol: From a three-day old SD rat, hippocampus and cerebral cortex were removed. By using a kit of dispersion liquid for neuronal cells (MB-X9901, manufactured by SUMITOMO BAKELITE CO., LTD.), cell suspension was prepared and then seeded on a 96-well plate coated with collagen Type I (4860-010, manufactured by Asahi Techno Glass Co., Ltd.) to 10^5 cells/well. Under the condition of 37° C. and 5% CO2, the cells were cultured for four days in a growth medium (D-MEM/F12 with 10% FBS, comprising PS).
After culturing, the medium was exchanged with a medium for differentiation (D-MEM/F12, comprising PS), added with rhIGF-1 (R&D Systems, 291-G1-250, final concentration of 100 ng/ml) and the compound to 1 μM, followed by further culture for three days. […] By using the plate reader (Labsystems Multiskan BICHROMATIC), absorbance at 450 nm was measured.
The absorbance for the case in which no compound is added (i.e., control, rhIGF-1 only) was 100%, and the increase ratio of the absorbance for the compound addition (i.e., compound+rhIGF-1) compared to the control was obtained as % control. Activity of the each compound for promoting neuronal differentiation that is measured according to the above method is summarized in Table 9 and Table 10.

Compound: COc1ccc(N2CCN(c3c(C)c(C)c4c(c3C)CC(C)(CO)O4)CC2)cc1 (single isomer, unassigned; (+)) [Example 144, (+)-{5-[4-(4-methoxyphenyl)piperazin-1-yl]-2,4,6,7-tetramethyl-2,3-dihydro-1-benzofuran-2-yl}methanol]
- Increase Ratio of the Absorbance (% control): >500 % control
